The results in this text go back to US20180282323A1, “Mesoionic imidazole derivatives as insecticides” (BAYER CROPSCIENCE AKTIENGESELLSCHAFT, priority 2015, published 2018).

In general, chromatographic logP refers to lipophilicity estimated from chromatographic retention.

Structures are written as SMILES. Read-outs that look alike come from different tables or passages of the source.

Data set [1] in a line: log P by HPLC on reversed-phase column (EEC directive 79/831 Annex V.A8). The format is physicochemical. The following applies: for log p: HPLC on reversed-phase column (footnote a); for log p a): HPLC on reversed-phase column. In a few lines:
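Reversed-phase (C18) HPLC at 43° C, following EEC directive 79/831 Annex V.A8.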

Data set [2] relates to Myzus persicae. As to the kind of experiment: Myzus persicae oral test. The format is in vivo. As to conditions: application rate 20 ppm, oral uptake through parafilm, after 5 days; for pest or weed control at 20 ppm: Myzus persicae, 120 h, read-out: efficacy. In a few lines:
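Oral feeding format: mixed-stage Myzus persicae imbibe acetone/water compound formulation in sugared IPL41 medium through parafilm. Efficacy assessed as percent aphids killed at day 5.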

For data set [3], the system named is Myzus persicae. Description: Myzus persicae spray test (Chinese cabbage leaf discs). The format is in vivo. As to conditions: application rate 500 g/ha, after 6 days. Here is the method: Myzus persicae—Spray Test Solvent: 78 parts by weight of acetone • • 1.5 parts by weight of dimethylformamide Emulsifier: alkylaryl polyglycol ether
To produce a suitable active ingredient formulation, 1 part by weight of active ingredient is dissolved with the stated parts by weight of solvent and made up with water containing an emulsifier concentration of 1000 ppm until the desired concentration is attained. To produce further test concentrations, the formulation is diluted with emulsifier-containing water.
Discs of Chinese cabbage leaves (Brassica pekinensis) infested by all stages of the green peach aphid (Myzus persicae) are sprayed with an active ingredient formulation of the desired concentration.
After 6 days, the efficacy in % is determined. 100% means that all the aphids have been killed; 0% means that no aphids have been killed.

In the case of `CSCC(=O)c1c([O-])n(Cc2ccc(Cl)nc2)c2cccc[n+]12` [Example I-1-005], the log p in data set [1] worked out at 1.62. The efficacy in data set [2] was 100%; in data set [3], 90%.

In the case of `O=C(Cn1cc(Cl)cn1)c1c([O-])n(Cc2cnc(Cl)s2)c2cccc[n+]12` [Example I-1-010], the log p in data set [1] was 2.09. Besides, the efficacy in data set [2] came to 100%; in data set [3], 90%.

`N#Cc1cnn(CC(=O)c2c([O-])n(Cc3cnc(Cl)s3)c3cccc[n+]23)c1` [Example I-1-015] showed a log p in data set [1] of 1.68. For the same compound, the efficacy in data set [2] turned out to be 100%; in data set [3] it was 90%.

In data set [1], `C[S+]([O-])CC(=O)c1c([O-])n(Cc2ccc(Cl)nc2)c2cccc[n+]12` (centres unmarked) [Example I-1-022] came in with a log p of 0.91. Also, the efficacy in data set [2] and in data set [3] was 100% in each case.

In the case of `COCC(=O)c1c([O-])n(Cc2cncnc2)c2cccc[n+]12` [Example I-1-023], in data set [1], the log p came out at 0.4. Also, the efficacy in data set [2] and in data set [3] was 100% each time.

With `CC(C)OCC(=O)c1c([O-])n(Cc2cnc(Cl)s2)c2cccc[n+]12` [Example I-1-026, 1-[(2-chloro-1,3-thiazol-5-yl)methyl]-3-(isopropoxyacetyl)-1H-imidazo[1,2-a]pyridin-4-ium-2-olate], the chromatographic logP in data set [1] worked out at 1.73; in data set [1] (pH 2.7) it was 1.8. Also, in data set [2], the pest or weed control at 20 ppm was found to be 100%. In data set [3], this compound yielded an efficacy of 100%.

For the compound `CC(=O)c1c([O-])n(Cc2cnc(Cl)s2)c2cccc[n+]12` [Example I-1-043, 3-Acetyl-1-[(2-chloro-1,3-thiazol-5-yl)methyl]-1H-imidazo[1,2-a]pyridin-4-ium-2-olate], the chromatographic logP in data set [1] and in data set [1] (pH 2.7) was 1.29 in each case. The pest or weed control at 20 ppm in data set [2] amounted to 100%. In data set [3], this compound gave an efficacy of 100%.

In turn, `CC(=O)Nc1ccn(CC(=O)c2c([O-])n(Cc3cnc(Cl)s3)c3cccc[n+]23)n1` [Example I-1-056] had a log p in data set [1] of 1.21. Also, the efficacy in data set [2] and in data set [3] was 90% throughout.

Turning to `CCCOCC(=O)c1c([O-])n(Cc2cncnc2)c2cccc[n+]12` [Example I-1-061], in data set [1], the log p was determined as 1.08. The efficacy in data set [2] and in data set [3] was 100% in each case.

The compound `O=C(Cn1nccn1)c1c([O-])n(Cc2cnc(Cl)s2)c2cccc[n+]12` [Example I-1-068] had a log p in data set [1] of 1.41. In addition, the efficacy in data set [2] and in data set [3] was 100% in each case.

Take `CCC(=O)N(CC)CC(=O)c1c([O-])n(Cc2ccc(Cl)nc2)c2cccc[n+]12` [Example I-1-070]: in data set [1], the log p worked out at 1.64. The efficacy in data set [2] and in data set [3] was 100% in each case.

As for `CCOCC(=O)c1c([O-])n(Cc2cncnc2)c2cccc[n+]12` [Example I-1-072], in data set [1], the log p is recorded as 0.59. The efficacy in data set [2] and in data set [3] was 100% throughout.

Take `CC(=O)N(C)CC(=O)c1c([O-])n(Cc2cnc(Cl)s2)c2cccc[n+]12` [Example I-1-076]: the log p in data set [1] came to 1.18. In addition, the efficacy in data set [2] and in data set [3] was 100% in each case.

Turning to `Cc1cccc2n(Cc3cnc(Cl)s3)c([O-])c(C(=O)CCl)[n+]12` [Example I-1-080], the log p in data set [1] is given as 1.81. The compound further returned an efficacy in data set [3] of 100%.

In the case of `Cc1ccc[n+]2c(C(=O)CCl)c([O-])n(Cc3cnc(Cl)s3)c12` [Example I-1-081], the log p in data set [1] came out at 1.98. Also, the efficacy in data set [2] and in data set [3] was 100% throughout.

As for `COC(=O)c1c([O-])n(Cc2cnc(Cl)s2)c2cccc[n+]12` [Example I-1-085, 1-[(2-Chloro-1,3-thiazol-5-yl)methyl]-3-(methoxycarbonyl)-1H-imidazo[1,2-a]pyridin-4-ium-2-olate], the chromatographic logP in data set [1] and in data set [1] (pH 2.7) was 1.23 each time. Besides, in data set [3], the efficacy was determined as 90%.

Regarding `CC(c1ccc(Cl)nc1)n1c([O-])c(C(=O)NCC(F)(F)F)[n+]2ccccc12` (centres unmarked) [Example I-1-241], the “log p a)” value in data set [1] came out at 2.2. The efficacy in data set [2] amounted to 100%.

On to `CCNC(=O)c1c([O-])n(Cc2cnc(C)cn2)c2cccc[n+]12` [Example I-1-244], for which the “log p a)” value in data set [1] came to 1.07. Moreover, in data set [2], the efficacy amounted to 90%.

With `CNC(=O)c1c([O-])n(Cc2cnc(C)cn2)c2cccc[n+]12` [Example I-1-245], the “log p a)” value in data set [1] was found to be 0.76. In addition, in data set [2], the efficacy is recorded as 90%.

For the compound `CCCNC(=O)c1c([O-])n(C(C)c2ccc(Cl)nc2)c2cccc[n+]12` (centres unmarked) [Example I-1-249], the “log p a)” value in data set [1] came to 2.02. This compound also came in with an efficacy in data set [2] of 100%.

Turning to `CC(c1ccc(Cl)nc1)n1c([O-])c(C(=O)NCC2CC2)[n+]2ccccc12` (centres unmarked) [Example I-1-250], the “log p a)” value in data set [1] is 2.12. In data set [2], the efficacy came to 100%.

Consider `Cc1ccc[n+]2c(C(=O)Cn3cccn3)c([O-])n(Cc3cnc(Cl)s3)c12` [Example I-1-251], for which the “log p a)” value in data set [1] is 1.69. In data set [2], this compound registered an efficacy of 100%.

Consider `Cc1ccc[n+]2c(C(=O)Nc3ncccn3)c([O-])n(Cc3ccc(Cl)nc3)c12` [Example I-1-265], for which the “log p a)” value in data set [1] stood at 1.51. Also, in data set [2], the efficacy is 90%.

`Cc1cnc(Cn2c([O-])c(C(=O)Nc3c(F)cccc3F)[n+]3ccccc23)cn1` [Example I-1-269]: in data set [1], the “log p a)” value stood at 1.75. In data set [2], this compound came in with an efficacy of 100%.

Turning to `CC(c1ccc(Cl)nc1)n1c([O-])c(C(=O)NC2(C#N)CC2)[n+]2ccccc12` (centres unmarked) [Example I-1-271], the “log p a)” value in data set [1] was 1.69. Further, the efficacy in data set [2] was 100%.

With `CC(c1ccc(Cl)nc1)n1c([O-])c(C(=O)Nc2c(F)cccc2F)[n+]2ccccc12` (centres unmarked) [Example I-1-272], the “log p a)” value in data set [1] stood at 2.46. In data set [2], this compound came in with an efficacy of 100%.

Turning to `CCNC(=O)c1c([O-])n(Cc2cnc(Cl)cn2)c2cccc[n+]12` [Example I-1-278], in data set [1], the “log p a)” value was found to be 1.51. Also, the efficacy in data set [2] was 100%.

Regarding `O=C(Nc1ccccc1F)c1c([O-])n(Cc2cnc(Cl)s2)c2cccc[n+]12` [Example I-1-286], the “log p a)” value in data set [1] came out at 2.95. In addition, the efficacy in data set [2] worked out at 100%.

For the compound `CC(c1cnc(Cl)s1)n1c([O-])c(C(=O)NC2(C#N)CC2)[n+]2ccccc12` (centres unmarked) [Example I-1-289], in data set [1], the “log p a)” value was 1.86. Also, the efficacy in data set [2] is 100%.

`Cc1ccc[n+]2c(C(=O)COC3CCCCC3)c([O-])n(Cc3cnc(Cl)s3)c12` [Example I-1-294]: the “log p a)” value in data set [1] is 2.77. The compound further had an efficacy in data set [2] of 90%.

Turning to `COc1cccc(NC(=O)c2c([O-])n(Cc3ccc(Cl)nc3)c3cccc[n+]23)c1` [Example I-1-299], in data set [1], the “log p a)” value came out at 2.55. In data set [2], this compound displayed an efficacy of 100%.

For the compound `Cc1ccc[n+]2c(C(=O)COC3CCCC3)c([O-])n(Cc3cnc(Cl)s3)c12` [Example I-1-302], in data set [1], the “log p a)” value is recorded as 2.45. The same compound registered an efficacy in data set [2] of 100%.

In the case of `C#Cc1cccnc1NC(=O)c1c([O-])n(Cc2cnc(Cl)s2)c2cccc[n+]12` [Example I-1-303], the “log p a)” value in data set [1] is on record as 1.3. In data set [3], the efficacy was determined as 90%.

`O=C(Nc1cc(F)ccc1F)c1c([O-])n(Cc2cnc(Cl)s2)c2cccc[n+]12` [Example I-1-306]: the “log p a)” value in data set [1] was 3.23. The compound further displayed an efficacy in data set [2] of 100%.

With `N#Cc1cccc(F)c1NC(=O)c1c([O-])n(Cc2cnc(Cl)s2)c2cccc[n+]12` [Example I-1-307], the “log p a)” value in data set [1] is listed as 2.2. Moreover, in data set [3], the efficacy was found to be 90%.

As to `O=C(NCC(F)(F)F)c1c([O-])n(Cc2ccc(Cl)nc2)c2cccc[n+]12` [Example I-1-312], the “log p a)” value in data set [1] worked out at 1.98. The efficacy in data set [2] is on record as 100%.

On to `O=C(Nc1ncccc1F)c1c([O-])n(Cc2ccc(Cl)nc2)c2cccc[n+]12` [Example I-1-317], for which the “log p a)” value in data set [1] came out at 1.49. Moreover, the efficacy in data set [2] amounted to 100%.

With `COc1ccccc1NC(=O)c1c([O-])n(Cc2ccc(Cl)nc2)c2cccc[n+]12` [Example I-1-326], the “log p a)” value in data set [1] turned out to be 2.55. Besides, in data set [2], the efficacy is on record as 100%.

`COC(=O)c1c([O-])n(Cc2ccc(Cl)nc2)c2nccc[n+]12` [Example I-4-001, 1-[(6-Chloropyridin-3-yl)methyl]-3-(methoxycarbonyl)-1H-imidazo[1,2-a]pyrimidin-4-ium-2-olate]: the chromatographic logP in data set [1] and in data set [1] (pH 2.7) was 1.15 each time. For the same compound, the pest or weed control at 20 ppm in data set [2] came out at 100%.

With `O=C(CCl)c1c([O-])n(Cc2ccc(Cl)nc2)c2scc[n+]12` [Example I-5-001, 5-(Chloroacetyl)-7-[(6-chloropyridin-3-yl)methyl]-7H-imidazo[2,1-b][1,3]thiazol-4-ium-6-olate], the chromatographic logP in data set [1] and in data set [1] (pH 2.7) was 1.33 each time. Besides, the pest or weed control at 20 ppm in data set [2] came to 100%.

As for `O=C(CCl)c1c([O-])n(Cc2cnc(Cl)s2)c2scc[n+]12` [Example I-5-002], the “log p^a)” value in data set [1] (Table 3; HPLC reversed-phase C18, 43° C.; footnote a) acidic range pH 2.7) was 1.46. In data set [2], the efficacy is recorded as 100%.
